Data reported in patent US20160000762A1, “IMPROVING COGNITIVE FUNCTION” (THE REGENTS OF THE UNIVERSITY OF CALIFORNIA, priority 2013, published 2016).

Tests used:
SC and TA inputs to CA1 = experiment: Field potential recordings and LTP, acute hippocampal slices of injected mice; format: in vivo, wild-type mice
Description: Electrophysiology. Transverse [for Schaffer collateral (SC) input studies] or horizontal [for temporammonic (TA) input studies] hippocampal slices (400-μm thick) were prepared from adult mice. Slices were made using ice-cold dissection buffer (in mM: 212.7 sucrose, 2.6KCl, 1.23NaH2PO4, 10 dextrose, 3MgCl2 and 1CaCl2; 5% CO2/95% O2), and recordings were done in a submersion-type chamber perfused with artificial cerebrospinal fluid (ACSF, in mM: 124NaCl, 5KCl, 1.25NaH2PO4, 26NaHCO3, 10 dextrose, 1.5MgCl2, and 2.5CaCl2; 5% CO2/95% O2, 29.5-30.5° C., 2 ml/min). For field potential recordings, synaptic responses were evoked using 0.2 ms duration pulses delivered through a bipolar glass stimulating electrode at 0.0333 Hz. A train of TBS consisted of a burst of 4 pulses at 100 Hz repeated 10 times at 5 Hz. For 4× TBS, 4 trains of TBS were given at 10 sec inter-train-intervals. For whole cell recordings, slices were transferred to a submersion-type recording chamber mounted on a fixed stage of an upright microscope (E600 FN; Nikon, Tokyo, Japan) with IR oblique illumination. […]. These neurons were patched using a whole cell patch pipette (tip resistance 3-5 MΩ), which was filled with internal solution (in mM: 120 Cs-methanesulfonate, 5MgCl2, 8NaCl, 1 EGTA, 10 HEPES, 2 Mg.ATP, 0.5Na3GTP and 1 QX-314; pH 7.3, 280-290 mOsm). Recording was initiated 2-3 min after break-in, and each cell was recorded for 10-15 min to collect enough mEPSCs for analysis. The Axon patch-clamp amplifier 700B (Molecular Devices, Union City, Calif.) was used for voltage-clamp recordings. Cells were held at −70 mV, and the recorded mEPSC data were digitized at 10 kHz with a data acquisition board (National Instruments, Austin, Tex.) and acquired through custom-made programs using the Igor Pro software (WaveMetrics, Lake Oswego, Oreg.). The MiniAnalysis program (Synaptosoft, Decatur, Ga.) was used to analyze the acquired mEPSCs. The threshold for detecting mEPSCs was set at three times the root mean square (RMS) noise. […] Recordings were excluded from analysis if the RMS noise was <2, the series resistance was […], and input resistance was >100 MΩ. To minimize the impact of dendritic filtering, we adopted the standard approach of excluding mEPSCs with rise time >3 ms, as well as cells showing a negative correlation between mEPSC amplitude and rise time (Rall, 1969). Only about 4% of the total recorded cells (at most 1 cell per experimental group) were excluded due to negative correlation between mEPSC rise and amplitude. One hundred consecutive mEPSCs that met the rise time criteria were analyzed from each cell. AMPAR- and NMDAR-mediated currents were measured at −70 and +40 mV, respectively. AMPAR mediated EPSC amplitudes were measured at the peak of the current at −70 mV. NMDAR mediated EPSC amplitudes were measured 100 ms after the stimulation artifact. Data are means±SE. Student's t-test was used for two-group comparisons. For all statistical tests, P<0.05 was considered statistically significant.
Therefore, we examined whether improved cognitive performance following BTA-EG4 treatment is associated with altered synaptic function and plasticity. We conducted electrophysiology experiments in an acute hippocampal slice preparation from wild-type mice injected with BTA-EG4 (30 mg/kg, i.p.) or control solution (10% DMSO, i.p) for 2 weeks. […] Long-term potentiation (LTP) was either normal or reduced, depending on the induction protocol (FIGS. 3C-3D). […] There was also not a change in presynaptic function (FIG. 3I).

human APP = target: T1, human APP (Homo sapiens, UniProt P05067); experiment: Cell surface biotinylation, COS7 cells expressing APP; format: cell-based; conditions: 5 μM, 24 h
T1 construct: expressed in transfected cells; host or cells: COS7 cells
Description: Cell lines. COS 7 cells (Lombardi Co-Resources Cancer Center, Georgetown University) were maintained in Opti-MEMO (Invitrogen) with 10% fetal bovine serum (FBS, Life Technologies, Inc.) in a 5% CO2 incubator. The cells were transiently transfected with 0.5-1 μg of plasmid in FuGENE® 6 (Roche) according to the manufacturer's protocol and cultured 24 hr in DMEM containing 10% FBS. For co-transfections, cells were similarly transfected with 0.5-1 μg of each plasmid in FUGENE® 6 (Roche) and cultured 24 hr in DMEM with 10% FBS.
Cell surface biotinylation. COS7 cells were transiently transfected with APP for 24 hr in OPTI-MEM® containing 10% fetal bovine serum, and then treated with BTA-EG4 or control for 24 hr. After 24 hr, surface proteins were biotin labeled, immobilized with NeutrAvidin™ Gel and incubated 1 h with SDS-PAGE sample buffer, including 50 mM DTT, as described previously (Minami et al., 2010). Eluates were analyzed for APP by immunoblotting.
It is well known that the majority of a-secretase activity occurs on the cell surface, while β- and γ-secretase activity occurs primarily in the early and late endosomes (Huse et al., 2000; Reiss et al., 2006). Thus, if APP is present at the cell's surface, it is preferentially cleaved by α-secretase, resulting in decreased Aβ production. Therefore, we examined whether BTA-EG4 regulates cell surface expression of APP. […]

[1] = SC inputs to CA1, 30 mg/kg i.p., 2 weeks

T1 sequence (P05067 18-770): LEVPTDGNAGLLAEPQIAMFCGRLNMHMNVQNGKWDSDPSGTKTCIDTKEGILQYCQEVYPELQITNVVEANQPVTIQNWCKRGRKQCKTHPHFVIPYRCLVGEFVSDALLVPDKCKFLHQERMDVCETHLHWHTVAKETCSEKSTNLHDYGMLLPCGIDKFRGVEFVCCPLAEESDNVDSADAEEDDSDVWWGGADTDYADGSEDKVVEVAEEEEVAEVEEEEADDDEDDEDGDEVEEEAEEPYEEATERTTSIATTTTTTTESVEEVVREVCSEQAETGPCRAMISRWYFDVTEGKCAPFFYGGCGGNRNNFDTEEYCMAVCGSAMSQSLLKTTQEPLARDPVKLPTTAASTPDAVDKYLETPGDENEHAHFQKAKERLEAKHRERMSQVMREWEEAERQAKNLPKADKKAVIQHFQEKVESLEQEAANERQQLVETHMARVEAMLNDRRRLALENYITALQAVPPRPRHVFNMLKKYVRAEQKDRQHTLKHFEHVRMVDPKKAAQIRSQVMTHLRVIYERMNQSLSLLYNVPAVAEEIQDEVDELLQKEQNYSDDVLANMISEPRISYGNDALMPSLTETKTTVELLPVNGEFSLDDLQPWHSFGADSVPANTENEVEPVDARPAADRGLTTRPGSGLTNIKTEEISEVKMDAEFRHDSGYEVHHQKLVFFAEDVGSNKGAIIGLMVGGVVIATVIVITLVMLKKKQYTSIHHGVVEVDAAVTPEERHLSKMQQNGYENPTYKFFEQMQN

BTA-EG4
summation of synaptic responses during the LTP induction protocol (SC and TA inputs to CA1; SC inputs to CA1): reduced | magnitude of LTP (SC and TA inputs to CA1; SC inputs to CA1, induced by 1× TBS): No difference | magnitude of LTP (SC and TA inputs to CA1; SC inputs to CA1, induced by 4× TBS): reduction | basal synaptic transmission (SC and TA inputs to CA1; [1]): did not alter | presynaptic function (SC and TA inputs to CA1; [1]): did not alter | presynaptic function (SC and TA inputs to CA1; TA inputs to CA1): not a change | response summation during the induction protocol (SC and TA inputs to CA1; TA inputs to CA1): absence of a change | synaptic transmission normalized to presynaptic fiber volley amplitude (SC and TA inputs to CA1; TA inputs to CA1): no difference | TA-LTP (SC and TA inputs to CA1; TA inputs to CA1, at 1 h post-LTP, CTRL 120±2.1%): 109±1.2% | ability to recruit presynaptic axons per stimulation intensity (SC and TA inputs to CA1; TA inputs to CA1, 30 mg/kg i.p.): reduced | cell surface APP (human APP): increased
